Data taken from US20130236568A1, “PHOSPHAPLATINS HAVING ANTI-ANGIOGENIC, ANTI-METASTATIC, AND PRO-APOPTOTIC PROPERTIES AND USES THEREOF” (Ohio University, priority 2011, published 2013).

How the values were obtained:
Type in all cases: cell-based, human
PTEN [1] = assay: Quantitative real-time PCR, PTEN expression in HUVEC; details: HUVEC treated with pyrodach-4
Protocol: (§1) Evaluations of selected gene expressions in Human Umbilical Vein Endothelial Cells (HUVEC) and Human Ovarian Cancer Cells by quantitative reverse transcriptase polymerase chain reaction (PCR)
(§2) Quantitative real-time PCR experiments were performed to estimate the expression of a selection of targeted genes. HUVEC cells (Lonza Walkersville, Frederick, Md.) were cultured on 0.1% gelatin-coated petri dishes by following standard protocols recommended by the vendor in a humidified incubator by maintaining 5% CO2 at 37° C. […]
(§3) Both treated and untreated cancer cells were maintained in RPMI 1640 medium with 10% fetal bovine serum, 2 μmol L-glutamine, 100 units/mL penicillin-streptomycin and 0.25 units/mL insulin solution, at 37° C. with 5% CO2. […] The quantity and purity of RNA were determined by UV spectroscopy (NanoDrop 2000 Thermo Scientific, Wilmington, Del.). A minimum absorbance ratio index (ratio of the absorbance measured at 260 nm over that at 280 nm) of 1.9 was used as an acceptable purity. […] The target gene was labeled with a blue dye (FAM, absorbance: 494 nm, emission: 518 nm) while the reference gene was tagged with a green dye (VIC, absorbance: 538 nm, emission: 554 nm). […]
(§4) The threshold cycle number (Ct), the point at which the fluorescence of the qPCR reaction just exceeds the threshold fluorescence of the detection system, was determined. […]

PUMA [2] = assay: Expression of key genes with and without p53 inhibitor (Table 3): PUMA; details: positive = manifold increase, negative = decrease vs untreated cells
Protocol: (§5) Quantitative real-time PCR experiments were performed to estimate the expression of a selection of targeted genes. HUVEC cells (Lonza Walkersville, Frederick, Md.) were cultured on 0.1% gelatin-coated petri dishes by following standard protocols recommended by the vendor in a humidified incubator by maintaining 5% CO2 at 37° C. Human epithelial ovarian cancer cells (A2780) and cisplatin-resistant cells (A2780/C30) were cultured in RPMI 1640 with or without cisplatin (7 μM) and pyrodach-4 (180 μM) for 0, 3, 12 and 24 hours. […] HUVECs were treated with or without cisplatin (7 μM) or pyrodach-4 (90 or 180 μM) for various durations ranging from 1 hr. to 6 hrs.
as §3, with “CO2. RNA was isolated from both the treated and untreated cells.” for “CO2.”

caspase-3 = assay: Quantitative real-time PCR, caspase-3 expression in HUVEC; details: HUVEC treated with pyrodach-4
Protocol: as §1, §2, §3, §4

PUMA [3] = assay: Quantitative real-time PCR, PUMA expression in HUVEC; details: HUVEC treated with pyrodach-4
Protocol: as §1, §2, §3, §4

VEGFR-2 = assay: Expression of key genes with and without p53 inhibitor (Table 3): VEGFR-2; details: positive = manifold increase, negative = decrease vs untreated cells
Protocol: as §5
as §3, with “CO2. RNA was isolated from both the treated and untreated cells.” for “CO2.”

FasL = assay: Quantitative real-time PCR, FasL expression in HUVEC; details: HUVEC treated with pyrodach-4
Protocol: as §1, §2, §3, §4

PTEN [4] = assay: Quantitative real-time PCR, PTEN expression in A2780 cells; details: for Normalized expression of PTEN: control = 1.0
Protocol: as §1, §5
Both treated and untreated cancer cells were maintained in RPMI 1640 medium with 10% fetal bovine serum, 2 μmol L-glutamine, 100 units/mL penicillin-streptomycin and 0.25 units/mL insulin solution, at 37° C. with 5% CO2. RNA was isolated from both the treated and untreated cells. […] The quantity and purity of RNA were determined by UV spectroscopy (NanoDrop 2000 Thermo Scientific, Wilmington, Del.). A minimum absorbance ratio index (ratio of the absorbance measured at 260 nm over that at 280 nm) of 1.9 was used as an acceptable purity. […] The target gene was labeled with a blue dye (FAM, absorbance: 494 nm, emission: 518 nm) while the reference gene was tagged with a green dye (VIC, absorbance: 538 nm, emission: 554 nm). The cDNA concentrations were selected such that the threshold cycle (Ct) values for the target genes were between 17 and 32, most sensitive for the fluorescence detection by ABI StepOnePlus™ instrument used for the measurements.
as §4

PTEN [5] = assay: Expression of key genes with and without p53 inhibitor (Table 3): PTEN; details: positive = manifold increase, negative = decrease vs untreated cells
Protocol: as §5
as §3, with “CO2. RNA was isolated from both the treated and untreated cells.” for “CO2.”

p53 = assay: Expression of key genes with and without p53 inhibitor (Table 3): p53; details: positive = manifold increase, negative = decrease vs untreated cells
Protocol: as §5
as §3, with “CO2. RNA was isolated from both the treated and untreated cells.” for “CO2.”

E-cadherin = assay: Immunofluorescent labeling of E-cadherin protein in A2780 cells; details: 24 hr treatment at or below IC50 concentration
Protocol: Left panels show E-cadherin bound to its antibody labeled with FITC (green). The middle and right panels represent nuclei stained with Prolong® Gold Antifade Reagent with 4′-6-Diamidino-2-phenylindole (DAPI, a nuclear stain) and merger of the left and middle panels (see Example 5 below for details).
Cells were grown on multi-chamber slide systems (Lab-Tek™, Nunc, Denmark). These cells were treated with pyrodach-4 at or below IC50 concentrations for 24 hours. Untreated cells were used as a control while treated and untreated cells without primary antibody labeling were used as negative controls. […] The Fas and E-cadherin proteins were detected via direct labeling using anti-Fas (FITC labeled, Santa Cruz Biotechnology, Inc., Santa Cruz, Calif.) and anti-E-cadherin (FITC labeled, BD Transduction Laboratories, Franklin Lakes, N.J.) fluorescently tagged antibodies. Other proteins, p53, BAX and PUMA were detected indirectly with fluorescently labeled secondary antibodies (Texas Red-conjugated anti-mouse IgG for p53 and Fluorescein-conjugated anti-rabbit IgG for BAX and PUMA, obtained from Vector Labs, Burlingame, Calif.) at 1:1000 dilution. […] The stain was cured for 24 hours before fluorescence images were acquired. […]

Fas = assay: Expression of key genes with and without p53 inhibitor (Table 3): Fas; details: positive = manifold increase, negative = decrease vs untreated cells
Protocol: as §5
as §3, with “CO2. RNA was isolated from both the treated and untreated cells.” for “CO2.”

**Q.** How did the “Over-expression of PTEN” value (PTEN [1]) turn out when “trans-(±)-1,2-cyclohexanediamine-trans-dihydroxo(pyrophosphato) platinum(IV) [Pyrodach-4]” was run?
**A.** The value was 4-8 fold.

**Q.** What about the “Expression of PUMA” value (PUMA [2]; Pyrodach-4 + PFT-α) of the same substance?
**A.** The value was 4.4.

**Q.** What about the “Expression of PUMA” value (PUMA [2]; Pyrodach-4 treatment only) of the same substance?
**A.** The value was 16.6.

**Q.** What about the “Over-expression of caspase-3” value (caspase-3) of the same substance?
**A.** Its value is 2-3 fold.

**Q.** And the “Over-expression of PUMA” value (PUMA [3])?
**A.** The value was 10-15 fold.

**Q.** What about the “Expression of VEGFR-2” value (VEGFR-2; Pyrodach-4 + PFT-α) of the same substance?
**A.** The value was −1.6.

**Q.** What about the “Expression of VEGFR-2” value (VEGFR-2; Pyrodach-4 treatment only) of the same substance?
**A.** The value was −1.9.

**Q.** And the “Over-expression of FasL” value (FasL)?
**A.** The value was 2-4 fold.

**Q.** What about the “Expression of the PTEN gene compared to control” value (PTEN [4]) of the same substance?
**A.** Its value is 5.5 fold.

**Q.** What about the “Normalized expression of PTEN” value (PTEN [4]; pyrodach-4 alone) of the same substance?
**A.** Its value is 5.5.

**Q.** And the “Normalized expression of PTEN” value (PTEN [4]; pyrodach-4 in the presence of p53 inhibitor PTF-α)?
**A.** Its value is 0.8.

**Q.** And the “Expression of PTEN” value (PTEN [5]; Pyrodach-4 + PFT-α)?
**A.** The value was −1.3.

**Q.** What about the “Expression of PTEN” value (PTEN [5]; Pyrodach-4 treatment only) of the same substance?
**A.** The value was 5.5.

**Q.** What about the “Expression of p53” value (p53; Pyrodach-4 + PFT-α) of the same substance?
**A.** Its value is 2.1.

**Q.** And the “Expression of p53” value (p53; Pyrodach-4 treatment only)?
**A.** The value was 1.8.

**Q.** What about the “Diffusivity of E-cadherin (immunofluorescence)” value (E-cadherin) of the same substance?
**A.** The value was “reduces the diffusivity”.

**Q.** And the “Expression of E-cadherin protein (immunofluorescence)” value (E-cadherin)?
**A.** Its value is “increases the expression”.

**Q.** And the “Expression of Fas” value (Fas; Pyrodach-4 + PFT-α)?
**A.** Its value is 5.5.

**Q.** And the “Expression of Fas” value (Fas; Pyrodach-4 treatment only)?
**A.** The value was 11.0.
